Experimental data: patent US9481669B2, “Pladienolide pyridine compounds and methods of use” (Eisai R&D Management Co., Ltd., priority 2014, dated 2016)

What was measured:
[1] = system: Pre-EIF4A1 and SLC25A19 expression in Nalm-6 SF3B1^K700E xenograft tumors; assay: PK/PD testing in Nalm-6 mouse xenograft model; format: in vivo, CB17-SCID mice; conditions: single oral dose
Protocol: Pharmacokinetics (PK)/pharmacodynamics (PD) of Compound 2 were also analyzed in the Nalm-6 mouse xenograft model. Nalm-6 SF3B1^K700E isogenic cells (human pre B-cell line, 10×10^6 cells) were subcutaneously implanted into the flank of female CB17-SCID mice. Mice were administered a single oral dose of 10 mg/kg Compound 2 (10% ethanol, 5% TWEEN-80, 85% saline), and the tumors were collected at the indicated times post administration for analysis.
RNA was isolated using RiboPure™ RNA purification kit (Ambion®) and used for qPCR analysis. The RNA was retrotranscribed according to the instructions of the SuperScript® VILO™ cDNA synthesis kit (Invitrogen™), and 0.04 μl of cDNA was used for quantitative PCR (qPCR). qPCR for pre-mRNA EIF4A1 and mature mRNA […] and PK evaluation were performed as reported previously (Eskens, F. A. et al. Phase I pharmacokinetic and pharmacodynamic study of the first-in-class spliceosome inhibitor E7107 in patients with advanced solid tumors. Clin Cancer Res. 19, 6296-6304, doi:10.1158/1078-0432.CCR-13-0485 (2013)). All animal studies were carried out according to the H3 Biomedicine Guide for the Care and Use of Laboratory Animals.
Pharmacokinetics (PK)/pharmacodynamics (PD) of Compound 1 were also analyzed in the Nalm-6 mouse xenograft model. […]

[2] = system: splicing of Ad2 pre-mRNA in HeLa nuclear extract; assay: In vitro splicing (IVS) biochemical assay; conditions: 30° C.
Protocol: Biotin-labeled pre-mRNA of an adenovirus type 2 construct with a deletion of intervening sequence (Ad2) (Berg, M. G., et al. 2012 Mol. Cell Bio., 32(7):1271-83) was prepared by in vitro transcription. The Ad2 construct containing Exon 1 (41 nucleotides), Intron (231 nucleotides), and Exon 2 (72 nucleotides) was generated by gene synthesis and cloned into the EcoRI and XbaI sites of pGEM®-3Z vector (Promega) by Genewiz® (South Plainfield, N.J.). The plasmid was then linearized by XbaI digestion and purified. In vitro transcription and purification of transcribed pre-mRNA were performed using the MEGAscript® T7 transcription kit (Invitrogen™, Life Technologies™, Grand Island, N.Y.) and MEGAclear™ transcription clean-up kit (Invitrogen™, Life Technologies™, Grand Island, N.Y.), respectively, following the manufacturer's instructions. The ratio of biotin-16-UTP (Roche Diagnostics Corporation, Indianapolis, Ind.) to cold UTP was 1:13 to incorporate approximately two biotin molecules per spliced Ad2 mRNA.
In vitro splicing assay was performed at 30° C. in 25 μL reaction mixtures containing 95 μg HeLa nuclear extract (Promega Corporation, Madison, Wis.), 47 nM Ad2 pre-mRNA, 25 U RNasin RNase inhibitor (Promega Corporation, Madison, Wis.), 1×SP buffer (0.5 mM ATP, 20 mM creatine phosphate, 1.6 mM MgCl2), and compounds in DMSO (with 1% final concentration of DMSO). After […] of incubation, the reaction was stopped by addition of 18 μL of 5M NaCl, and the mixtures were incubated with 10 μL of M-280 streptavidin-coated magnetic beads (Invitrogen™, Life Technologies™, Grand Island, N.Y.) for 30 min at room temperature to capture Ad2 pre- and spliced mRNA. The beads were washed twice with 100 uL buffer containing 10 mM Tris pH=7.5, 1 mM EDTA and 2M NaCl, and then incubated in RNA gel loading buffer containing 95% formamide at 70° C. for 10 min to elute the RNAs. Ad2 RNAs were resolved by 6% TBE-UREA gel, transferred to a nylon membrane, UV cross-linked, and probed with an IRDye® labeled streptavidin (LI-COR, Lincoln, Nebr.). The amount of spliced RNA was quantified by measuring the band fluorescent intensity using LI-COR Image Studio software.
The in vitro splicing (IVS) assay described above is a biochemical assay that monitors inhibition of the splicing of an exemplary pre-mRNA into an mRNA.

[3] = system: Panc 05.04 cells (mt SF3B1; Q699H and K700E mutations in SF3B1); assay: Cell viability assay (CellTiter-Glo, 72 hr), Panc 05.04; format: cell-based; conditions: for GI50 / Emax: Panc 05.04, 72 hr; for Emax: negative value indicates cellular lethality
Protocol: Cells (WiDr and Panc05.04 obtained from ATCC) were seeded in 96-well plates, with 2000 cells/100 μL/well, and incubated overnight. Spent media was removed, and fresh media containing 9 different concentrations of compound (100 μL/well) were added, with DMSO concentration from compound stock solution adjusted to be 0.1%. Each compound treatment was done in duplicate or triplicate at each concentration.
Another plate with cells seeded was dedicated as a time zero (Tz) plate, to which was added 0.1% DMSO in media (100 μL/well) followed by CellTiter-Glo® reagent (Promega Corporation, Madison, Wis.) (50 μL/well) for ATP measurement as a surrogate of cell viability. Average value from measurement of multiple wells of this plate is used as Tz.
Compound-treated plates were incubated for 72 hr at 37° C. Then, CellTiter-Glo® reagent (50 μL/well) was added and ATP was measured. Average value from measurement of the duplicate or triplicate compound-treated wells is used as Ti, and seeded plates with medium having 0.1% DMSO without compound is used as control growth (C).
Percentage growth inhibition/Percentage viability was calculated as: [(Ti−Tz)/(C−Tz)]×100 for concentrations for which Ti>/=Tz [(Ti−Tz)/Tz]×100 for concentrations for which Ti<Tz. *time zero (Tz), control growth (C), and test growth in the presence of compound (Ti) Percentage growth inhibition/Percentage viability are plotted versus compound concentration to determine Emax.
Growth inhibition of 50% (GI50) was calculated from [(Ti−Tz)/(C−Tz)]×100=50, which is the drug concentration resulting in a 50% reduction in the net increase of ATP in control growth (C) during the compound treatment.
Emax refers to the maximum achievable response to a compound in a tested dose range, with a negative value indicating cellular lethality. A larger negative Emax value indicates greater cellular lethality for a particular compound.

Row | SMILES | PD responses (fold change in Pre-EIF4A1 and SLC25A19 expression in tumor) [1] | IC50 [2] [nM] | GI50 [3] [nM] | Emax [3] [%] | cellular lethality (Emax comparison) ([3]; Panc 05.04 cells)
1 | C/C(=C\C=C\[C@@H](C)c1ccccn1)[C@H]1OC(=O)C[C@H](O)CC[C@@](C)(O)[C@@H](OC(=O)N2CCN(C3CCCCCC3)CC2)/C=C/[C@@H]1C [Compound 1, (2S,3S,6S,7R,10R,E)-7,10-dihydroxy-3,7-dimethyl-12-oxo-2-((R,2E,4E)-6-(pyridin-2-yl)hepta-2,4-dien-2-yl)oxacyclododec-4-en-6-yl 4-cycloheptylpiperazine-1-carboxylate] | showed PD responses at a tolerated dose | 188 | 19.5 | -86.8 | greater cellular lethality than Compound 2
2 | C/C(=C\C=C\[C@@H](C)c1ccccn1)[C@H]1OC(=O)C[C@H](O)CC[C@@](C)(O)[C@@H](OC(=O)N2CCN(C)CC2)/C=C/[C@@H]1C [Compound 2, (2S,3 S,6S,7R,10R,E)-7,10-dihydroxy-3,7-dimethyl-12-oxo-2-((R,2E,4E)-6-(pyridin-2-yl)hepta-2,4-dien-2-yl)oxacyclododec-4-en-6-yl 4-methylpiperazine-1-carboxylate] | showed PD responses at a tolerated dose | 1330 | 32.7 | -66.1 | –
3 | C/C(=C\C=C\[C@@H](C)c1ccccn1)[C@H]1OC(=O)C[C@H](O)CC[C@@](C)(O)[C@@H](OC(=O)N2CCC(N3CCCCCC3)CC2)/C=C/[C@@H]1C [Compound 3, (2S,3S,6S,7R,10R,E)-7,10-dihydroxy-3,7-dimethyl-12-oxo-2-((R,2E,4E)-6-(pyridin-2-yl)hepta-2,4-dien-2-yl)oxacyclododec-4-en-6-yl 4-(azepan-1-yl)piperidine-1-carboxylate] | – | 770 | 20.8 | -90.8 | –
4 | C/C(=C\C=C\[C@@H](C)c1ccccn1)[C@H]1OC(=O)C[C@H](O)CC[C@@](C)(O)[C@@H](OC(=O)N2CCC(N3CCCCC3)CC2)/C=C/[C@@H]1C [Compound 4, (2S,3 S,6S,7R,10R,E)-7,10-dihydroxy-3,7-dimethyl-12-oxo-2-((R,2E,4E)-6-(pyridin-2-yl)hepta-2,4-dien-2-yl)oxacyclododec-4-en-6-yl[1,4′-bipiperidine]-1′-carboxylate] | – | 89 | 11.8 | -86.2 | –
